Results: article PMC7763995 (Molecules, 2020)
Where two headings read alike, the source gives them in different places.

Legend:
[1] = FRAP (ferric reducing antioxidant power) assay; conditions: 20 µM, 1 h incubation; ratio of concentrations of Trolox and test compound with same effect
Experimental: The FRAP (ferric reducing antioxidant power) assay proposed by Benzie and Strain [80, 81] was modified to be performed in 96-well microplates. The FRAP reagent contained 2.5 mL of 10 mM TPTZ (2,4,6-tris(2-pyridyl)-s-triazine (Sigma-Aldrich) solution in 40 mM HCl, 2.5 mL of 20 mM FeCl3 (Sigma-Aldrich) in distilled water and 25 mL of 0.3 M acetate buffer (pH 3.6). In 96-well microplates, 10 µL aliquots of the substance under investigation (compounds 7, 8 or reference substance) dissolved in DMSO (0.5 mM) were placed in quadruplicate. The FRAP reagent (240 µL) freshly prepared and warmed to 37°C was added to three of these samples, while the same volume of acetate buffer was added to the fourth one (blank). Consequently, the concentration of the substance in a plate was 20 µM. The absorbance at 600 nm was monitored spectrophotometrically with a FLUOStar OPTIMA microplate reader at 37°C for an hour with an interval of 5–10 min. Data in Table 2 are given for 1 h of incubation of compounds with FRAP reagent. The absorbances of the blanks and those of the mixture of 240 µL FRAP reagent plus 10 µL DMSO were subtracted from the absorbances of the samples at each time interval to calculate the absorbance change. Standard antioxidants Trolox and BHT dissolved in DMSO and analyzed as described above were used as reference compounds. A calibration curve with linear formula y = 0.03x (R^2 = 0.998, p < 0.0001) was obtained for Trolox solution in DMSO in the range 2.5–100 µM and the results were expressed as FRAP units (the values calculated as the ratio of the concentrations of Trolox and the test compound resulting in the same effect.)

mouse brain homogenate [2] = experiment: Luminol chemiluminescence assay in mouse brain homogenate (TBHP-initiated); conditions: compound concentration 20 µM; mice brain homogenate
Experimental: (§1) The work was carried out in accordance with the EU Directive 2010/63/EU. Hybrid BDF1 mice (about 6 months old) were sacrificed by decapitation. Each brain was rapidly excised, frozen in liquid nitrogen, and stored at −80°C until use. The brains were thawed and homogenized using a Wisd WiseTis HG-15D homogenizer for 2 min in a buffer (0.01 M PBS, pH 7.4 or 0.1 M Tris-HCl, pH 7.4). Protein concentrations were determined by the Lowry method.
Luminol-dependent chemiluminescence produced by mouse brain homogenates was measured using a 1250 Luminometer (LKB Wallac, Turku, Finland) according to the assay by Di Meo et al. with minor modifications. The reaction mixture consisted of mouse brain homogenate (protein concentration 0.1 mg/mL) in 0.1 M Tris-HCl (Sigma-Aldrich), pH 7.4, luminol (Sigma-Aldrich) (0.05 mM), TBHP (Sigma-Aldrich) (0.073 M) and tested compounds at a concentration of 20 μM. This was placed in a light-proof luminometer chamber and the background reading was recorded. All measurements were carried out at 37°C. The gain control was set to give a reading of 10 mV using a built-in standard. The free radical content in mouse brain homogenate was evaluated by the change in the light sum (the area under the kinetic curve of luminescence intensity for the entire luminescence time). All compounds were examined at least in triplicate. The effects of tested compounds were measured as the percentage decrease in the light sum relative to the control (a sample with no compound added).

mouse brain homogenate [3] = experiment: TBARS assay, spontaneous lipid peroxidation in mouse brain homogenate; conditions: read-out: Inhibition of Spontaneous Lipid Peroxidation in Mice Brain Homogenate, TBARS Assay, IC50
Experimental: as §1
The procedure was performed in accordance with the method of Ohkawa et al. with minor modifications. Briefly, mouse brain homogenate (protein concentration 1 mg/mL) in PBS (0.1 M, pH 7.4) was incubated for 30 min at 37°C with tested conjugates, and the reaction was terminated by addition of 0.4 mL of 17% (w/v) trichloroacetic acid (Sigma-Aldrich). Following centrifugation for 20 min at 1300× g, 0.5 mL of 0.8% (w/v) of TBA (Sigma-Aldrich) was added to 1 mL of supernatant, heated for 30 min at 95°C and then cooled to RT. The optical density of the TBARS, which corresponds to the produced MDA, was measured at 532 nm against a blank using an Agilent Cary 60 UV-Vis spectrophotometer (Agilent, Santa Clara, CA, USA). The MDA concentration was calculated using an extinction coefficient of 1.56 × 10^5 M^−1cm^−1. Trolox and BHT were used as reference antioxidants. Compounds were dissolved in DMSO (Sigma-Aldrich) and tested in a concentration range 0.01–100 μM. All compounds were examined at least in triplicate.

[4] = ABTS radical cation scavenging activity assay; conditions: for IC50 / ABTS^•+-Scavenging Activity, TEAC: 1 h incubation; for ABTS^•+-Scavenging Activity, TEAC: ratio of slopes test compound/Trolox
Experimental: Radical scavenging activity of the compounds was assessed using the ABTS radical decolorization assay with some modifications. ABTS was purchased from Tokyo Chemical Industry Co., Ltd. (Tokyo, Japan), potassium persulfate (dipotassium peroxodisulfate), Trolox (6-hydroxy-2,5,7,8-tetramethychroman-2-carboxylic acid), and HPLC-grade ethanol were obtained from Sigma-Aldrich. Aqueous solutions were prepared using deionized water.
The solution of cation radical ABTS^•+ was produced by incubation of ABTS with potassium persulfate in deionized water for 12–16 h at room temperature in the dark. Radical scavenging capacity of the compounds was analyzed by mixing 10 μL of compound with 240 μL of ABTS^•+ working solution in ethanol (100 μM final concentration). The reaction was monitored for an hour with an interval of 5–10 min. Data are given for 1 h of incubation of compounds with ABTS^•+. The reduction in absorbance was measured spectrophotometrically at 734 nm using a xMark microplate UV/VIS microplate spectrophotometer (Bio-Rad, Hercules, CA, USA).
Ethanol blanks were run in each assay. Values were obtained from three replicates of each sample and three independent experiments. Standard antioxidants Trolox and BHT were used as reference compounds.
Antioxidant capacity as Trolox equivalent (TEAC) values was determined as the ratio between the slopes obtained from the linear correlation of the ABTS radical absorbance with the concentrations of tested compounds and Trolox. […] The compounds were tested in the concentration range of 0.1–100 µM.

Porcine liver CES = experiment: In vitro CES inhibition, 4-NPA substrate; assay type: biochemical; conditions: compound concentration 20 µM; n.a. = not active
Experimental: (§2) Measurements were performed with a FLUOStar Optima microplate reader (BMG Labtech, Ortenberg, Germany). Compounds were dissolved in DMSO, the incubation mixture contained 2% solvent.

EeAChE PAS = biological target: T1, EeAChE PAS (Electrophorus electricus, UniProt O42275); assay type: binding; conditions: compound concentration 20 µM
T1 construct: Electric eel AChE (EeAChE, type VI-S, lyophilized powder); purchased Sigma-Aldrich type VI-S; host or cells: electric eel
Experimental: Electric eel AChE (EeAChE, type VI-S, lyophilized powder, Sigma-Aldrich, Saint Louis, MO, USA) was used owing to its high degree of purification, high activity, and lower cost compared to human AChE.
The blank contained propidium iodide of the same concentration in 1 mM Tris-HCl buffer pH 8.0. The measurements were carried out in triplicate on a FLUOStar Optima microplate reader, and the results were calculated by formula (1):% Displacement = 100 − (IFAChE+ Propidium + inhibitor / IFAChE + Propidium) × 100(1) where IFAChE + Propidium is the fluorescence intensity of the propidium associated with AChE in the absence of the test compound (taken as 100%), and IFAChE + Propidium + inhibitor is the fluorescence intensity of the propidium associated with AChE in the presence of the test compound.

Equine serum BChE = biological target: T2, Equine serum BChE (Equus caballus, UniProt P81908); experiment: biochemical; conditions: for Selectivity for BChE: IC50 AChE / IC50 BChE
T2 construct: equine serum BChE; purchased Sigma-Aldrich; host or cells: equine serum
Experimental: as §2

Human erythrocyte AChE = biological target: T3, Human erythrocyte AChE (Homo sapiens, UniProt P22303); experiment: biochemical
T3 construct: AChE from human erythrocytes was used; purchased Sigma-Aldrich; host or cells: human erythrocytes
Experimental: as §2

[5] = mean ± SEM, n = 3, n.a. = not active, read-out: Equine Serum BChE, IC50
[6] = mean ± SEM, n = 3, n.a. = not active, read-out: Human Erythrocyte AChE, IC50

T2 sequence (P81908 whole entry): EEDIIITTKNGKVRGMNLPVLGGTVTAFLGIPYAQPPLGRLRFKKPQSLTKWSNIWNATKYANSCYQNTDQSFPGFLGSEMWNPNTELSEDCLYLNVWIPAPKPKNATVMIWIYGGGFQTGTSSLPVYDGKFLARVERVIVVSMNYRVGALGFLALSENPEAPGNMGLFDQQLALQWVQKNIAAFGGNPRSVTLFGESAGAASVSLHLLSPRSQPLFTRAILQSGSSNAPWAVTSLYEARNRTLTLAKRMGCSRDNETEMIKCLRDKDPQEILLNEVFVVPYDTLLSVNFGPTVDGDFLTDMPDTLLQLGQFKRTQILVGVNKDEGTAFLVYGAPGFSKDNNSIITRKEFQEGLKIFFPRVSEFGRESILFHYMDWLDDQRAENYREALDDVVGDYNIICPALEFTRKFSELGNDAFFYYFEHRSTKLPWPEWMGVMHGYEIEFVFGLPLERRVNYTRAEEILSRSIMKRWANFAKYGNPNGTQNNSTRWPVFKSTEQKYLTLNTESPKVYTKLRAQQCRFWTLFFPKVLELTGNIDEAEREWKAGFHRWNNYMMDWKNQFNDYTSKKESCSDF
T1 sequence (O42275 24-633): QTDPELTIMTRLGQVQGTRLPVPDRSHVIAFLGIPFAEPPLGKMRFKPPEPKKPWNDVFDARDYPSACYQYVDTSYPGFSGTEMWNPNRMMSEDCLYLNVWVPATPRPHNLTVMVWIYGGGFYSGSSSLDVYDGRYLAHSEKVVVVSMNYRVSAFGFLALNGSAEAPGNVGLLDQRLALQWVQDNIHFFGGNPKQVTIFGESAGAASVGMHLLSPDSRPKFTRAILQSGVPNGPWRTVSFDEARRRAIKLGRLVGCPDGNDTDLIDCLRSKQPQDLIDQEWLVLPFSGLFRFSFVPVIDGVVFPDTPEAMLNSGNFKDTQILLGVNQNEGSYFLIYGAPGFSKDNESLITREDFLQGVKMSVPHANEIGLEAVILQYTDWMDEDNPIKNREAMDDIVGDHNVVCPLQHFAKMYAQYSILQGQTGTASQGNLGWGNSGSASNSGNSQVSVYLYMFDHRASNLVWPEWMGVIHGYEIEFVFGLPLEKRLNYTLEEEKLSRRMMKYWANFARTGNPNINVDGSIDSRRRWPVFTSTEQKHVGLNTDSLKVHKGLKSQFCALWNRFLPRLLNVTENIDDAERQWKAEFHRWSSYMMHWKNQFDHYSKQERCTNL
T3 sequence (P22303 32-617 isoform P22303-2 limits assumed): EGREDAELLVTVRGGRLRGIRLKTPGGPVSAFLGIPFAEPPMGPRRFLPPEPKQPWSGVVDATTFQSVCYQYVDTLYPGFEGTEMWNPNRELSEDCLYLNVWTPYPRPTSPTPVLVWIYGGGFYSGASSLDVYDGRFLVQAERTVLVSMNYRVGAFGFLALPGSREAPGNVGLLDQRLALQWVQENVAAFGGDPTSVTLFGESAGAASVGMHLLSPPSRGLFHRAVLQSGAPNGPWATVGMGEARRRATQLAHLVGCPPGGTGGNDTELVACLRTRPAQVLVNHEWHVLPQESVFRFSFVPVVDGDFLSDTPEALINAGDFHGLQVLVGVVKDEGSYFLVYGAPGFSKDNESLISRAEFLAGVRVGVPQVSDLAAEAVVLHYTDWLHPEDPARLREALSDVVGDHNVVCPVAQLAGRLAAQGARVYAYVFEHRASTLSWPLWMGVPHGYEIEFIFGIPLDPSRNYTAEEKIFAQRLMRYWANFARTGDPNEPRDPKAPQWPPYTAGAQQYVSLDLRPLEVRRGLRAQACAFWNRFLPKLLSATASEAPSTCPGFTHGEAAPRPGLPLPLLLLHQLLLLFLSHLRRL

| SMILES | Ferric Reducing Antioxidant Power, FRAP Units [1] | Radical Scavenging Capacity in Luminol Chemiluminescence Assay, Luminescence Inhibition, % (mouse brain homogenate [2]) | IC50 (mouse brain homogenate [3]) | IC50 [4] | ABTS^•+-Scavenging Activity, TEAC [4] | Porcine Liver CES, (%) inhibition (Porcine liver CES) | Displacement of Propidium from EeAChE PAS (%) (EeAChE PAS) | Selectivity for BChE (Equine serum BChE) | IC50 (Equine serum BChE; [5]) | IC50 (Human erythrocyte AChE; [6]) | IC50 (Equine serum BChE) | IC50 (Human erythrocyte AChE) | Time of maximum binding of the ABTS radical [4] |
| --- | --- | --- | --- | --- | --- | --- | --- | --- | --- | --- | --- | --- | --- |
| Cc1cc(C(C)(C)C)c(O)c(C(C)(C)C)c1 [BHT, butylated hydroxytoluene, reference compound] | 1.76 ± 0.07 | 72.0 ± 2.6% | 6.89 ± 0.26 µM | 22.4 ± 1.4 µM | 0.98 ± 0.03 |  |  |  |  |  |  |  |  |
| O=[N+]([O-])c1ccc(OP(=O)(O)Oc2ccc([N+](=O)[O-])cc2)cc1 [BNPP, bis-4-nitrophenyl phosphate, reference compound] |  |  |  |  |  | 92.1 ± 1.8 ^3% |  |  |  |  |  |  |  |
| CC(C)(C)c1cc(C=NCCNc2c3c(nc4ccccc24)CCC3)cc(C(C)(C)C)c1O [Compound 7a, 2,6-Di-tert-butyl-4-{[2-(2,3-dihydro-1H-cyclopenta[b]quinolin-9-ylamino)-ethylimino]-methyl}-phenol] | 0.51 ± 0.03 | 94.0 ± 0.2% | 19.6 ± 0.8 µM | 22.3 ± 1.5 µM |  | 26.1 ± 0.7% | 18.1 ± 1.6% | 2.5 | 1.92 ± 0.11 µM | 4.86 ± 0.01 µM |  |  |  |
| CC(C)(C)c1cc(C=NCCNc2c3c(nc4ccccc24)CCCC3)cc(C(C)(C)C)c1O [Compound 7b, 2,6-Di-tert-butyl-4-{[2-(1,2,3,4-tetrahydro-acridin-9-ylamino)-ethylimino]-methyl}-phenol] | 0.58 ± 0.03 | 95.0 ± 0.2% | 7.21 ± 0.62 µM | 17.1 ± 1.4 µM | 1.13 ± 0.05 | 28.6 ± 1.6% | 18.2 ± 1.6% | 3.7 | 1.61 ± 0.04 µM | 5.98 ± 0.13 µM |  |  |  |
| CC(C)(C)c1cc(C=NCCNc2c3c(nc4ccccc24)CCCCCC3)cc(C(C)(C)C)c1O [Compound 7d, 2,6-Di-tert-butyl-4-{[2-(6,7,8,9,10,11-hexahydro-cycloocta[b]quinolin-12-ylamino)-ethylimino]-methyl}-phenol] | 0.57 ± 0.02 | 95.0 ± 0.2% | 14.8 ± 1.3 µM | 17.8 ± 1.7 µM | 1.12 ± 0.05 | 20.4 ± 1.6% | 17.1 ± 1.8% | 10.5 | 4.27 ± 0.26 µM | 45 ± 5.7 µM |  |  |  |
| CC(C)(C)c1cc(CNCCNc2c3c(nc4ccccc24)CCC3)cc(C(C)(C)C)c1O [Compound 8a, 2,6-Di-tert-butyl-4-{[2-(2,3-dihydro-1H-cyclopenta[b]quinolin-9-ylamino)-ethylamino]-methyl}-phenol] | 0.77 ± 0.02 | 95.0 ± 0.1% | 6.23 ± 0.33 µM | 12.7 ± 1.1 µM | 1.39 ± 0.05 | 19.6 ± 1.3% | 16.4 ± 1.4% | 5.4 |  |  | 0.652 ± 0.005 µM | 3.5 ± 0.33 µM | 5 min |
| Cc1c(C)c2c(c(C)c1O)CCC(C)(C(=O)O)O2 (stereo not drawn) [Trolox, 6-hydroxy-2,5,7,8-tetramethychroman-2-carboxylic acid, reference compound] | 1.0 | 88.0 ± 1.0% | 91.8 ± 0.3 µM | 20.1 ± 1.2 µM | 1.0 |  |  |  |  |  |  |  |  |
